Results: patent US8614242B2, “1-(heterocyclic carbonyl)-2-substituted pyrrolidines” (Bayer Intellectual Property GmbH, priority 2010, dated 2013)

What was measured:
Septoria tritici = experiment: In vivo preventive test on Septoria tritici (wheat); details: 500 ppm of active ingredient, evaluated 21 days after inoculation
Text: After the spray coating has been dried, the plants are sprayed with a spore suspension of Septoria tritici.

Puccinia triticina = experiment: In vivo preventive test on Puccinia triticina (wheat); details: 500 ppm of active ingredient, evaluated 8 days after inoculation
Protocol: In Vivo Preventive Test on Puccinia Triticina (Wheat)
Solvent: 49 parts by weight of N,N-dimethylacetamide
Emulsifier: 1 part by weight of alkylaryl polyglycol ether
After the spray coating has been dried, the plants are sprayed with a spore suspension of Puccinia triticina.
The test is evaluated 8 days after the inoculation.

Sphaerotheca fuliginea = experiment: In vivo preventive test on Sphaerotheca fuliginea (cucumber); details: 500 ppm of active ingredient, evaluated 7 days after inoculation
[1] = test system: Blumeria graminis f.sp. hordei; experiment: In vivo preventive test on Blumeria graminis (barley); details: 500 ppm of active ingredient, evaluated 7 days after inoculation
Text: After the spray coating has been dried, the plants are dusted with spores of Blumeria graminis f.sp. hordei.

[2] = logP by HPLC on reversed-phase column (EEC Directive 79/831 Annex V.A8); format: physicochemical; details: for logP: HPLC on reversed-phase column (C 18), 40° C., 0.1% aqueous formic acid and acetonitrile, linear gradient 10% to 90% acetonitrile
Protocol: In table 1, the logP values were determined in accordance with EEC Directive 79/831 Annex V.A8 by HPLC (High Performance Liquid Chromatography) on a reversed-phase column (C 18), using the method described below: Temperature: 40° C.; Mobile phases: 0.1% aqueous formic acid and acetonitrile; linear gradient from 10% acetonitrile to 90% acetonitrile. Calibration was carried out using unbranched alkan-2-ones (comprising 3 to 16 carbon atoms) with known logP values (determination of the logP values by the retention times using linear interpolation between two successive alkanones). lambda-max-values were determined using UV-spectra from 200 nm to 400 nm and the peak values of the chromatographic signals.

[3] = test system: Fusarium nivale (var. majus); experiment: In vivo preventive test on Fusarium nivale (wheat); details: 500 ppm of active ingredient, evaluated 5 days after inoculation
Text: After the spray coating has been dried, the plants are slightly injured by using a sandblast and afterwards they are sprayed with a conidia suspension of Fusarium nivale (var. majus).

Venturia inaequalis = experiment: In vivo preventive test on Venturia inaequalis (apple scab); details: 100 ppm of active ingredient, evaluated 10 days after inoculation
Protocol: After the spray coating has dried on, the plants are inoculated with an aqueous conidia suspension of the causal agent of apple scab (Venturia inaequalis) and then remain for 1 day in an incubation cabinet at approximately 20° C. and a relative atmospheric humidity of 100%.

Pyrenophora teres = experiment: In vivo preventive test on Pyrenophora teres (barley); details: 500 ppm of active ingredient, evaluated 7-9 days after inoculation
Protocol: The plants remain for 48 hours in an incubation cabinet at 22° C. and a relative atmospheric humidity of 100%.

Leptosphaeria nodorum = experiment: In vivo preventive test on Leptosphaeria nodorum (wheat); details: evaluated 8 days after inoculation
Text: After the spray coating has been dried, the plants are sprayed with a spore suspension of Leptosphaeria nodorum.

Alternaria solani = experiment: In vivo preventive test on Alternaria solani (tomato); details: evaluated 7 days after inoculation
Protocol: The plants remain for one day in an incubation cabinet at approximately 22° C. and a relative atmospheric humidity of 100%. Then the plants are placed in an incubation cabinet at approximately 20° C. and a relative atmospheric humidity of 96%.

[4] = 100 ppm of active ingredient, listed as 1.110
[5] = 100 ppm of active ingredient, listed as 1.110 from WO-2009/153191

## Cn1nc(C(F)F)c(C(=O)N2CCCC2Cc2cccc(Cl)c2)c1F (racemic) [Example 64]
Septoria tritici
  Efficacy: 100%
Puccinia triticina
  Efficacy: 100%
Sphaerotheca fuliginea
  Efficacy: 93%
[1]
  Efficacy: 100%
[2]
  logP: 3.25
[3]
  Efficacy: 100%
Venturia inaequalis
  Efficacy: 100%
Pyrenophora teres
  Efficacy: 100%
Leptosphaeria nodorum; 500 ppm of active ingredient
  Efficacy: 93%

## Cn1nc(C(F)F)c(C(=O)N2CCCC2Cc2ccc(Cl)cc2)c1F (racemic) [Example 65]
Septoria tritici
  Efficacy: 100%
Sphaerotheca fuliginea
  Efficacy: 95%
[1]
  Efficacy: 100%
[2]
  logP: 3.29
[3]
  Efficacy: 100%
Venturia inaequalis
  Efficacy: 100%
Pyrenophora teres
  Efficacy: 100%
Leptosphaeria nodorum; 500 ppm of active ingredient
  Efficacy: 100%
Alternaria solani; 500 ppm of active ingredient
  Efficacy: 94%

## Cn1nc(C(F)F)c(C(=O)N2CCCC2Cc2c(F)cccc2Cl)c1F (racemic) [Example 67]
Septoria tritici
  Efficacy: 100%
Puccinia triticina
  Efficacy: 94%
Sphaerotheca fuliginea
  Efficacy: 95%
[1]
  Efficacy: 100%
[2]
  logP: 3.15
[3]
  Efficacy: 100%
Venturia inaequalis
  Efficacy: 100%
Pyrenophora teres
  Efficacy: 100%
Leptosphaeria nodorum; 500 ppm of active ingredient
  Efficacy: 100%
Alternaria solani; 500 ppm of active ingredient
  Efficacy: 100%

## Cn1nc(C(F)F)c(C(=O)N2CCCC2Cc2c(Cl)cccc2Cl)c1F (racemic) [Example 76]
Septoria tritici
  Efficacy: 83%
Sphaerotheca fuliginea
  Efficacy: 95%
[1]
  Efficacy: 100%
[2]
  logP: 3.31
[3]
  Efficacy: 100%
Pyrenophora teres
  Efficacy: 100%

## Cn1cc(C(=O)N2CCC[C@H]2COc2c(Cl)cc(Cl)cc2Cl)c(C(F)F)n1 [Example 1.006 from WO-2009/153191, [3-(difluoromethyl)-1-methyl-1H-pyrazol-4-yl]{(S)-2-[(2,4,6-trichlorophenoxy)methyl]pyrrolidin-1-yl}methanone, reference compound]
Leptosphaeria nodorum; 250 ppm of active ingredient, listed as 1.006
  Efficacy: less than 50%
Leptosphaeria nodorum; 250 ppm of active ingredient, listed as 1.006 from WO-2009/153191
  Efficacy: 43%
Leptosphaeria nodorum; 500 ppm of active ingredient, listed as 1.006
  Efficacy: at least 70%
Leptosphaeria nodorum; 500 ppm of active ingredient, listed as 1.006 from WO-2009/153191
  Efficacy: 71%

## Cn1cc(C(=O)N2CCCC2Cc2c(Cl)cccc2Cl)c(C(F)F)n1 (stereo not shown) [Example 1.110 from WO-2009/153191, [2-(2,6-dichlorobenzyl)pyrrolidin-1-yl][3-(difluoromethyl)-1-methyl-1H-pyrazol-4-yl]methanone, reference compound]
Leptosphaeria nodorum; [4]
  Efficacy: no protection
Leptosphaeria nodorum; [5]
  Efficacy: 0%
Leptosphaeria nodorum; 500 ppm of active ingredient
  Efficacy: 44%
Alternaria solani; [4]
  Efficacy: less than 30%
Alternaria solani; [5]
  Efficacy: 30%
Alternaria solani; 500 ppm of active ingredient
  Efficacy: 95%

## Cn1nc(C(F)F)c(C(=O)N2CCCC2c2cccc(C(F)(F)F)c2)c1Cl (stereo not shown) [Example 16]
Sphaerotheca fuliginea
  Efficacy: 86%
[2]
  logP: 3.21
Pyrenophora teres
  Efficacy: 100%
Alternaria solani; 500 ppm of active ingredient
  Efficacy: 100%

## Cn1nc(C(F)F)c(C(=S)N2CCCC2c2cccc(C(F)(F)F)c2)c1F (stereo not shown) [Example 18]
Sphaerotheca fuliginea
  Efficacy: 100%
[2]
  logP: 3.59
Pyrenophora teres
  Efficacy: 100%
Alternaria solani; 500 ppm of active ingredient
  Efficacy: 90%

## Cn1nc(C(F)F)c(C(=O)N2CCCC2c2ccc(C(F)(F)F)cc2)c1F (stereo not shown) [Example 21]
Sphaerotheca fuliginea
  Efficacy: 81%
[2]
  logP: 3.13
Pyrenophora teres
  Efficacy: 95%
Alternaria solani; 500 ppm of active ingredient
  Efficacy: 90%

## Cn1nc(C(F)F)c(C(=O)N2CCCC2c2ccc(Cl)cc2Cl)c1F (stereo not shown) [Example 22]
Sphaerotheca fuliginea
  Efficacy: 91%
[2]
  logP: 3.44
Pyrenophora teres
  Efficacy: 95%
Alternaria solani; 500 ppm of active ingredient
  Efficacy: 100%

## Cn1nc(C(F)F)c(C(=S)N2CCCC2c2ccc(Cl)cc2Cl)c1F (stereo not shown) [Example 24]
Sphaerotheca fuliginea
  Efficacy: 95%
[2]
  logP: 4.09
Pyrenophora teres
  Efficacy: 100%
Alternaria solani; 500 ppm of active ingredient
  Efficacy: 90%

## Cn1nc(C(F)F)c(C(=O)N2CCCC2c2ccc(Cl)c(Cl)c2)c1F (stereo not shown) [Example 26]
Sphaerotheca fuliginea
  Efficacy: 95%
[2]
  logP: 3.23
Pyrenophora teres
  Efficacy: 100%
Alternaria solani; 500 ppm of active ingredient
  Efficacy: 95%

## Cn1nc(C(F)F)c(C(=O)N2CCCC2c2cc(Cl)cc(Cl)c2)c1Cl (stereo not shown) [Example 27]
Sphaerotheca fuliginea
  Efficacy: 70%
[2]
  logP: 3.50
Pyrenophora teres
  Efficacy: 95%
Alternaria solani; 500 ppm of active ingredient
  Efficacy: 95%

## Cn1nc(C(F)F)c(C(=O)N2CCCC2c2cc(Cl)cc(Cl)c2)c1F (stereo not shown) [Example 28]
Sphaerotheca fuliginea
  Efficacy: 100%
[2]
  logP: 3.35
Pyrenophora teres
  Efficacy: 100%
Alternaria solani; 500 ppm of active ingredient
  Efficacy: 95%

## Cn1nc(C(F)F)c(C(=O)N2CCCC2c2ccccc2Br)c1F (stereo not shown) [Example 32]
Sphaerotheca fuliginea
  Efficacy: 95%
[2]
  logP: 2.98
Pyrenophora teres
  Efficacy: 100%
Alternaria solani; 500 ppm of active ingredient
  Efficacy: 95%

## Cn1nc(C(F)F)c(C(=O)N2CCCC2c2cccc(Br)c2)c1F (stereo not shown) [Example 34]
Sphaerotheca fuliginea
  Efficacy: 95%
[2]
  logP: 2.92
Pyrenophora teres
  Efficacy: 100%
Alternaria solani; 500 ppm of active ingredient
  Efficacy: 95%

## Cn1nc(C(F)F)c(C(=O)N2CCCC2c2cc(C(F)(F)F)cc(C(F)(F)F)c2)c1F (stereo not shown) [Example 39]
Sphaerotheca fuliginea
  Efficacy: 100%
[2]
  logP: 3.63
Pyrenophora teres
  Efficacy: 100%
Alternaria solani; 500 ppm of active ingredient
  Efficacy: 95%

## Cn1nc(C(F)F)c(C(=O)N2CCCC2Cc2ccccc2)c1F (stereo not shown) [Example 52]
Septoria tritici
  Efficacy: 100%
Puccinia triticina
  Efficacy: 89%
[1]
  Efficacy: 100%
[2]
  logP: 2.84
[3]
  Efficacy: 100%
Venturia inaequalis
  Efficacy: 100%
Pyrenophora teres
  Efficacy: 100%
Leptosphaeria nodorum; 500 ppm of active ingredient
  Efficacy: 100%
Alternaria solani; 500 ppm of active ingredient
  Efficacy: 100%

## Cc1ccccc1CC1CCCN1C(=O)c1c(C(F)F)nn(C)c1F (stereo not shown) [Example 54]
Septoria tritici
  Efficacy: 100%
Puccinia triticina
  Efficacy: 100%
Sphaerotheca fuliginea
  Efficacy: 95%
[1]
  Efficacy: 100%
[2]
  logP: 3.13
[3]
  Efficacy: 100%
Venturia inaequalis
  Efficacy: 100%
Pyrenophora teres
  Efficacy: 95%
Leptosphaeria nodorum; 500 ppm of active ingredient
  Efficacy: 100%
Alternaria solani; 500 ppm of active ingredient
  Efficacy: 94%

## Cc1cccc(CC2CCCN2C(=O)c2c(C(F)F)nn(C)c2F)c1 (stereo not shown) [Example 55, [3-(difluoromethyl)-5-fluoro-1-methyl-1H-pyrazol-4-yl][2-(3-methyl-benzyl)pyrrolidin-1-yl]methanone]
Septoria tritici
  Efficacy: 100%
Puccinia triticina
  Efficacy: 100%
Sphaerotheca fuliginea
  Efficacy: 95%
[1]
  Efficacy: 100%
[2]
  chromatographic logP: 3.21
[3]
  Efficacy: 100%
Venturia inaequalis
  Efficacy: 100%
Pyrenophora teres
  Efficacy: 100%
Leptosphaeria nodorum; 500 ppm of active ingredient
  Efficacy: 100%

## Cc1ccc(CC2CCCN2C(=O)c2c(C(F)F)nn(C)c2F)cc1 (stereo not shown) [Example 56]
Septoria tritici
  Efficacy: 100%
Puccinia triticina
  Efficacy: 89%
Sphaerotheca fuliginea
  Efficacy: 81%
[1]
  Efficacy: 100%
[2]
  logP: 3.23
[3]
  Efficacy: 100%
Venturia inaequalis
  Efficacy: 98%
Pyrenophora teres
  Efficacy: 100%
Leptosphaeria nodorum; 500 ppm of active ingredient
  Efficacy: 93%
Alternaria solani; 500 ppm of active ingredient
  Efficacy: 94%

## Cn1nc(C(F)F)c(C(=O)N2CCCC2Cc2ccccc2F)c1F (stereo not shown) [Example 57]
Septoria tritici
  Efficacy: 100%
Puccinia triticina
  Efficacy: 100%
Sphaerotheca fuliginea
  Efficacy: 94%
[1]
  Efficacy: 100%
[2]
  logP: 2.86
[3]
  Efficacy: 100%
Venturia inaequalis
  Efficacy: 100%
Pyrenophora teres
  Efficacy: 100%
Leptosphaeria nodorum; 500 ppm of active ingredient
  Efficacy: 100%
Alternaria solani; 500 ppm of active ingredient
  Efficacy: 94%

## Cn1nc(C(F)F)c(C(=O)N2CCCC2Cc2cccc(F)c2)c1F (stereo not shown) [Example 58]
Septoria tritici
  Efficacy: 100%
Puccinia triticina
  Efficacy: 100%
Sphaerotheca fuliginea
  Efficacy: 96%
[1]
  Efficacy: 100%
[2]
  logP: 2.90
[3]
  Efficacy: 100%
Venturia inaequalis
  Efficacy: 99%
Pyrenophora teres
  Efficacy: 100%
Leptosphaeria nodorum; 500 ppm of active ingredient
  Efficacy: 100%
Alternaria solani; 500 ppm of active ingredient
  Efficacy: 89%

## Cn1nc(C(F)F)c(C(=O)N2CCCC2Cc2ccc(F)cc2)c1F (stereo not shown) [Example 59]
Septoria tritici
  Efficacy: 90%
Puccinia triticina
  Efficacy: 88%
Sphaerotheca fuliginea
  Efficacy: 93%
[1]
  Efficacy: 100%
[2]
  logP: 2.90
[3]
  Efficacy: 100%
Pyrenophora teres
  Efficacy: 100%
Leptosphaeria nodorum; 500 ppm of active ingredient
  Efficacy: 93%

## Cn1nc(C(F)F)c(C(=O)N2CCCC2Cc2ccccc2Cl)c1F (stereo not shown) [Example 60]
Puccinia triticina
  Efficacy: 100%
Sphaerotheca fuliginea
  Efficacy: 95%
[1]
  Efficacy: 100%
[2]
  logP: 3.06
[3]
  Efficacy: 100%
Venturia inaequalis
  Efficacy: 100%
Pyrenophora teres
  Efficacy: 100%
Leptosphaeria nodorum; 500 ppm of active ingredient
  Efficacy: 100%
Alternaria solani; 500 ppm of active ingredient
  Efficacy: 100%
